From patent publication EP0863702B1, “FUNGICIDAL MIXTURE” (BASF AKTIENGESELLSCHAFT, priority 1995, dated 1997)

Columns and labels:
[1] = test system: Botrytis cinerea; test: Efficacy against Botrytis cinerea on slices of green paprika fruit; assay type: in vivo; details: single active, Paprikaschoten-Scheiben, 4 Tage, 18°C
Description: Scheiben von grünen Paprikaschoten wurden mit wäßriger Wirkstoffaufbereitung, die 80 % Wirkstoff und 20 % Emulgiermittel in der Trockensubstanz enthielt, tropfnaß besprüht. 2 Stunden nach dem Antrocknen des Spritzbelages wurden die Fruchtscheiben mit einer Sporensuspension von Botrytis cinerea, die 1,7 x 10^6 Sporen pro ml einer 2 %igen Biomalzlösung enthielt, inokuliert. Die inokulierten Fruchtscheiben wurden anschließend in feuchten Kammern bei 18°C für 4 Tage aufgestellt. Dann erfolgte visuell die Auswertung der Botrytis-Entwicklung auf den befallenen Fruchtscheiben.
(§1) Die visuell ermittelten Werte für den Prozentanteil befallener Blattfläche wurden in Wirkungsgrade als % der unbehandelten Kontrolle umgerechnet. Wirkungsgrad 0 ist gleicher Befall wie in der unbehandelten Kontrolle, Wirkungsgrad 100 ist 0 % Befall. Die zu erwartenden Wirkungsgrade für Wirkstoffkombinationen wurden nach der Colby-Formel ermittelt (S. R. Colby "Calculating synergistic and antagonistic responses of herbicide combinations", Weeds 15, Seiten 20 bis 22 (1967)) und mit den beobachteten Wirkungsgraden verglichen.

[2] = test system: Botrytis cinerea; test: Efficacy against Botrytis cinerea on paprika seedlings (protective spray); assay type: in vivo; details: single active, Paprikasämlinge, 5 Tage, 22 bis 24°C
Description: Paprikasämlinge der Sorte "Neusiedler Ideal Elite" wurden, nachdem sich 4 bis 5 Blätter gut entwickelt hatten, mit wäßrigen Suspensionen, die 80 % Wirkstoff und 20 % Emulgiermittel in der Trockensubstanz enthielten, tropfnaß gespritzt. Nach dem Antrocknen des Spritzbelages wurden die Pflanzen mit einer Konidienaufschwemmung des Pilzes Botrytis cinerea besprüht und bei 22 bis 24°C in eine Kammer mit hoher Luftfeuchtigkeit gestellt. Nach 5 Tagen hatte sich die Krankheit auf den unbehandelten Kontrollpflanzen so stark entwickelt, daß die entstandenen Blattnekrosen den überwiegenden Teil der Blätter bedeckten.
as §1

Structure (SMILES)	Wirkungsgrad ([1]; 100 ppm in der Spritzbrühe)	Wirkungsgrad ([2]; 25 ppm in der Spritzbrühe)	Wirkungsgrad ([2]; 100 ppm in der Spritzbrühe)	Wirkungsgrad ([1]; 25 ppm in der Spritzbrühe)
CC(C)(CCl)C(=O)Nc1ccc(O)c(Cl)c1Cl [(A)]	20 % der unbehandelten Kontrolle	40 % der unbehandelten Kontrolle	84 % der unbehandelten Kontrolle	
CC1(C(=O)Nc2ccc(O)c(Cl)c2Cl)CC2CCC1C2 (centres unmarked) [(B)]	25 % der unbehandelten Kontrolle	65 % der unbehandelten Kontrolle	80 % der unbehandelten Kontrolle	10 % der unbehandelten Kontrolle
CC1(C(=O)Nc2ccc(O)c(Cl)c2Cl)CCCCC1 [(C)]	25 % der unbehandelten Kontrolle	35 % der unbehandelten Kontrolle	70 % der unbehandelten Kontrolle	30 % der unbehandelten Kontrolle
